Measurements reported in US20060004195A1, “Alpha,beta-unsaturated esters and acids by stereoselective dehydration” (priority 2004, published 2006).

melting point [°C]	SMILES
174	O=C(O)/C(=C\c1cc(-c2ccc3c(c2)OCO3)n(-c2cc(Cl)ccc2Cl)n1)c1cccc(Cl)c1 [Example 606, (Z)-3-[5-Benzo[1,3]dioxol-5-yl-1-(2,5-dichloro-phenyl)-1H-pyrazol-3-yl]-2-(3-chloro-phenyl)-acrylic acid]
295.5 to 297.5	COc1ccc(-n2nc(C[C@H](C(=O)[O-])c3cccc(C)c3)cc2-c2ccc(Cl)c(Cl)c2)cc1.[Na+] (stereo in doubt)
